Experimental data from US20020028851A1, “Guanylhydrazones and their use to treat inflammatory conditions” (priority 1994, published 2002).
pIC50: −log10 of the molar value. Read-outs that look alike come from different tables or passages of the source. Blank lines part the entries; values can stand above or below the compound they belong to.

How the values were obtained:
RAW 264.7 cells [1] = experiment: Whole cell inhibition assay for arginine uptake; type: cell-based, murine; details: γIFN+LPS, 8 hours
Experimental: In the embodiment described in the working example herein, a test population of cells was cultured for about 3 hours so that the cells became firmly adherent. Various concentrations of the potential inhibitors were then added to parallel cultures. One hour later the macrophage stimulators, e.g. including, but not limited to LPS and γIFN, were added. Eighteen hours later the cells were washed in a warm balanced salt solution supplemented with glucose. Carrier-free radiolabelled arginine was added; after 5 minutes, active uptake of arginine was stopped by washing the cell three times with buffer, chilled to 0° C., containing 10 mM unlabeled arginine to displace any externally bound label. The contents of the washed cells are solubilized in 100 μl of formic acid and counted by standard techniques.
RAW 264.7 cells are plated in standard 96-well microculture plates at a concentration of 10^5/well and allowed to adhere for from 2 hours to overnight. The medium is then replaced with medium containing the compound to be tested. One hour later, the medium is supplemented so as to contain 25 U/ml γIFN and 0.1 μg/ml LPS and the cultures incubated a further. The cells are then rinsed twice in HEPES- buffered Krebs salt solution with 0.1% glucose. Carrier-free tetra-^3H-arginine is added to each well (2.5 μCi/well with specific activity of […]) and the active uptake of arginine is allowed to continue for a 5 minute period after which the cells are rapidly cooled to 0° C. by lavage with iced saline containing 10 mM unlabeled arginine to displace any externally bound label. The contents of the washed cells are solubilized in 100 Al of formic acid and counted by standard techniques. In subsequent experiments to determine the acitivity of the inhibitors, incubations were performed for 8 hours.
(§1) This section describes experiments that measure the concentration of Compound No. 14 needed to inhibit arginine uptake and NO output. The techniques employed were described in section 7.1 supra.

RAW 264.7 cells [2] = experiment: Whole cell inhibition assay for urea output; type: cell-based, murine; details: for urea % suppression of induced production: γIFN+LPS, 18 hours; for pIC50: interpolated, γIFN+LPS-activated RAW 264.7, 18 hours, read-out: I.C.50 (in parenthesis), inhibition of urea production
Experimental: (§2) RAW 264.7 cells are plated in microculture wells at 1×10^6/ml in RPMI 1640 with 10% FBS and otherwise standard culture conditions and allowed to adhere for 5 hours. They are then activated with 25 U/ml γIFN and 0.1 μg/ml LPS in the presence of test inhibitors. The urea concentration present in the supernatant media, after 18 hours of culture, is determined by a colorimetric blood urea nitrogen diacetylmonoxime assay performed on an aliquot of the culture supernatant (Sigma Chem. Co., St. Louis, Mo.) and inhibition is expressed as the percentage urea compared to that of a parallel control culture treated identically except that the concentration of added inhibitor is zero.
(§3) Various concentrations of the test compounds are included in the media of the stimulated RAW 264.7 cells in culture. The concentration of urea and/or nitrite after 18 hours of activated culture is determined and compared to the uninhibited control value obtained from at least one parallel culture. The fractional reduction is calculated for each concentration of inhibitor and the IC50 (concentration giving 50% reduction) is interpolated. Compounds were dissolved in media with mild heat (60° C.). Those with limited solubility were dissolved in base. The concentration of stock solutions of those compounds which were not completely soluble was determined by OD280.

RAW 264.7 cells [3] = experiment: Whole cell inhibition assay for NO (nitrite) output; type: cell-based, murine; details: γIFN+LPS, 18 hours
Experimental: as §2
The production of nitrite is determined by assay of the same tissue culture supernatant by means of a calorimetric assay. Briefly, 4 parts of test solution containing 1% (w/v) sulfanilamide, 0.1% naphthylethylenediamine di-HCl (Griess Reagent), 2.5% H3PO4 and one part media are mixed, incubated for 10 minutes and the absorbance at 560 nm determined. The nitrite concentrations are interpolated from reference curves prepared using NaNO2.
as §3, §1

[4] = Solubility on preparing test solutions; type: physicochemical; details: preparation of test solutions
Experimental: as §3

pIC50 (RAW 264.7 cells [2]): 5.00
SMILES: CC(=NNC(=N)N)c1ccc(NC(=O)Nc2cc(C(C)=NNC(=N)N)cc(C(C)=NNC(=N)N)c2)cc1.Cl.Cl.Cl [Compound 9, N-(4-acetylphenyl)-N′-(3,5-diacetylphenyl)urea tris(amidinohydrazone) trihydrochloride]
arginine transport % suppression of induced peak (RAW 264.7 cells [1]; dose 1 μM): 14% | arginine transport % suppression of induced peak (RAW 264.7 cells [1]; dose 10 μM): 32% | arginine transport % suppression of induced peak (RAW 264.7 cells [1]; dose 25 μM): 68% | urea % suppression of induced production (RAW 264.7 cells [2]; dose 1 μM): 0% | urea % suppression of induced production (RAW 264.7 cells [2]; dose 10 μM): 60% | urea % suppression of induced production (RAW 264.7 cells [2]; dose 25 μM): 100% | no2/no3 % suppression of induced production (RAW 264.7 cells [3]; dose 1 μM): 0% | no2/no3 % suppression of induced production (RAW 264.7 cells [3]; dose 10 μM): 53% | no2/no3 % suppression of induced production (RAW 264.7 cells [3]; dose 25 μM): 71%

pIC50 (RAW 264.7 cells [2]): 4.30
SMILES: CC(=NNC(=N)N)c1ccc(NC(=O)Nc2ccc(C(C)=NNC(=N)N)cc2)cc1 [Compound 8, 4,4′-diacetyldiphenylurea bis(guanylhydrazone)]
urea % suppression of induced production (RAW 264.7 cells [2]; dose 50 μM): 76% | urea % suppression of induced production (RAW 264.7 cells [2]; dose 500 μM): 100%

pIC50 (RAW 264.7 cells [2]): 3.60
SMILES: CC(=NNC(=N)N)c1ccc(-n2ccnc2)cc1.Cl [Compound 6, 2-([(1H-imidazol-1-yl)-1,4-phenylene]ethylidyne)hydrazinecarboximidamide hydrochloride]
urea % suppression of induced production (RAW 264.7 cells [2]; dose 50 μM): 0% | urea % suppression of induced production (RAW 264.7 cells [2]; dose 100 μM): 40% | urea % suppression of induced production (RAW 264.7 cells [2]; dose 1 mM): 100%

pIC50 (RAW 264.7 cells [2]; Mus musculus, RAW264.7): 5.00
SMILES: CC(=NNC(=N)N)c1cc(C(C)=NNC(=N)N)cc(C(C)=NNC(=N)N)c1 [Compound 1, 1,3,5-triacetylbenzene tris(guanylhydrazone)]
arginine transport % suppression of induced peak (RAW 264.7 cells [1]; dose 1 μM): 0% | arginine transport % suppression of induced peak (RAW 264.7 cells [1]; dose 10 μM): 20% | arginine transport % suppression of induced peak (RAW 264.7 cells [1]; dose 25 μM): 40% | urea % suppression of induced production (RAW 264.7 cells [2]; dose 10 μM): 60% | urea % suppression of induced production (RAW 264.7 cells [2]; dose 25 μM): 100% | no2/no3 % suppression of induced production (RAW 264.7 cells [3]; dose 10 μM): 58% | no2/no3 % suppression of induced production (RAW 264.7 cells [3]; dose 25 μM): 72%

melting point: 258 to 259 °C
SMILES: CC(=O)c1cc(NC(=NNC(=N)N)NCC(C)CCCNC(=NNC(=N)N)Nc2cc(C(C)=NNC(=N)N)cc(C(C)=NNC(=N)N)c2)cc(C(C)=O)c1.Cl.Cl.Cl.Cl (stereo not shown) (hydrate or solvate)

melting point: 195 to 198 °C
SMILES: COc1ccc(C=NNC(=N)N)cc1OCCCCCOc1cc(C=NNC(=N)N)ccc1OC.Cl.Cl

melting point: 209 to 210 °C (dec.)
SMILES: CC(=O)c1ccc(NC(=O)NCCCN(CCCNC(=NNC(=N)N)Nc2ccc(C(C)=O)cc2)CCCNC(=NNC(=N)N)Nc2ccc(C(C)=NNC(=N)N)cc2)cc1.Cl.Cl.Cl (hydrate or solvate)

melting point: 285 to 286 °C | pIC50 (RAW 264.7 cells [2]; Mus musculus, RAW264.7): 3.52
SMILES: Cl.Cl.N=C(N)NN=C(CCC(=NNC(=N)N)c1ccccc1)c1ccccc1 [Compound 20, 2,2′-(1,4-diphenyl-1,4-butanediylidene)bishydrazinecarboximidamide dihydrochloride]
urea % suppression of induced production (RAW 264.7 cells [2]; dose 10 μM): 16% | urea % suppression of induced production (RAW 264.7 cells [2]; dose 50 μM): 19% | urea % suppression of induced production (RAW 264.7 cells [2]; dose 200 μM): 38% | urea % suppression of induced production (RAW 264.7 cells [2]; dose 400 μM): 100% | no2/no3 % suppression of induced production (RAW 264.7 cells [3]; dose 10 μM): 0% | no2/no3 % suppression of induced production (RAW 264.7 cells [3]; dose 50 μM): 0% | no2/no3 % suppression of induced production (RAW 264.7 cells [3]; dose 200 μM): 15% | no2/no3 % suppression of induced production (RAW 264.7 cells [3]; dose 400 μM): 84%

Dissolved in (solubility) [4]: Not soluble; | pIC50 (RAW 264.7 cells [2]): 5.00
SMILES: CC(=NNC(=N)N)c1cccc(OCCOc2cccc(C(C)=NNC(=N)N)c2)c1.Cl.Cl [Compound 15, 2,2′-[1,2-ethanediylbis(oxy-3,1-phenyleneethylidyne)] bishydrazinecarboximidamide dihydrochloride]
arginine transport % suppression of induced peak (RAW 264.7 cells [1]; dose 5 μM): 10% | arginine transport % suppression of induced peak (RAW 264.7 cells [1]; dose 15.0 μM): 35% | arginine transport % suppression of induced peak (RAW 264.7 cells [1]; dose 150 μM): 100% | urea % suppression of induced production (RAW 264.7 cells [2]; dose 5 μM): 8% | urea % suppression of induced production (RAW 264.7 cells [2]; dose 15.0 μM): 100% | urea % suppression of induced production (RAW 264.7 cells [2]; dose 150 μM): 100% | no2/no3 % suppression of induced production (RAW 264.7 cells [3]; dose 5 μM): 0% | no2/no3 % suppression of induced production (RAW 264.7 cells [3]; dose 15.0 μM): 9% | no2/no3 % suppression of induced production (RAW 264.7 cells [3]; dose 150 μM): 100%

The next lines start with the compound.

SMILES: CC(=NNC(=N)N)c1cc(NC(=N)NC(=N)N)cc(C(C)=NNC(=N)N)c1.Cl.Cl.Cl
melting point: 294 to 297 °C

SMILES: CC(=NNC(=N)N)c1ccc(O)c(O)c1.Cl [Compound 7, 2-[(3,4-dihydroxyphenyl)-ethylidyne]hydrazinecarboximidamide hydrochloride]
urea % suppression of induced production (RAW 264.7 cells [2]; dose 10 μM): 23% | urea % suppression of induced production (RAW 264.7 cells [2]; dose 100 μM): 35% | urea % suppression of induced production (RAW 264.7 cells [2]; dose 1 mM): 40% | urea % suppression of induced production (RAW 264.7 cells [2]; dose 2 mM): 55% | urea % suppression of induced production (RAW 264.7 cells [2]; dose 10 mM): 100% | pIC50 (RAW 264.7 cells [2]): 2.70

SMILES: CC(=O)c1cc(NC(=O)NCCN(CCNC(=NNC(=N)N)Nc2cc(C(C)=NNC(=N)N)cc(C(C)=NNC(=N)N)c2)CCNC(=NNC(=N)N)Nc2cc(C(C)=NNC(=N)N)cc(C(C)=NNC(=N)N)c2)cc(C(C)=O)c1.Cl.Cl.Cl.Cl.Cl.Cl.Cl (hydrate or solvate)
melting point: 245 to 246 °C (dec.)

SMILES: CC(=NNC(=N)N)c1cc(NC(=O)c2ccccc2)cc(C(C)=NNC(=N)N)c1.Cl.Cl
melting point: 268 to 272 °C

SMILES: CC(=O)c1cccc(NC(CCCC(=NNC(=N)N)Nc2cccc(C(C)=O)c2)=NNC(=N)N)c1.Cl.Cl [Compound 12, N,N′-bis(3-acetylphenyl)pentanediamide bis(amidinohydrazone) dihydrochloride]
melting point: 187 to 191 °C

SMILES: CC(=O)c1cc(NC(=O)NCCCN(CCCNC(=NNC(=N)N)Nc2cc(C(C)=NNC(=N)N)cc(C(C)=NNC(=N)N)c2)CCCNC(=NNC(=N)N)Nc2cc(C(C)=NNC(=N)N)cc(C(C)=NNC(=N)N)c2)cc(C(C)=O)c1.Cl.Cl.Cl.Cl.Cl.Cl.Cl (hydrate or solvate)
melting point: 250 to 251 °C (dec.)

SMILES: CC(=NNC(=N)N)c1cc(NC(=O)CCCC(=O)Nc2cc(C(C)=NNC(=N)N)cc(C(C)=NNC(=N)N)c2)cc(C(C)=NNC(=N)N)c1.Cl.Cl.Cl.Cl [Compound 13, N,N′-bis(3,5-diacetyl-phenyl)pentanediamide tetrakis(amidinohydrazone) tetrahydrochloride]
arginine transport % suppression of induced peak (RAW 264.7 cells [1]; dose 25 μM): 19% | arginine transport % suppression of induced peak (RAW 264.7 cells [1]; dose 50 μM): 7% | arginine transport % suppression of induced peak (RAW 264.7 cells [1]; dose 500 μM): 93% | urea % suppression of induced production (RAW 264.7 cells [2]; dose 10 μM): 45% | urea % suppression of induced production (RAW 264.7 cells [2]; dose 25 μM, compound as precipitate): 77% | urea % suppression of induced production (RAW 264.7 cells [2]; dose 25 μM, compound dissolved as solution): 100% | urea % suppression of induced production (RAW 264.7 cells [2]; dose 50 μM): 87% | urea % suppression of induced production (RAW 264.7 cells [2]; dose 500 μM): 100% | pIC50 (RAW 264.7 cells [2]): 5.00 | no2/no3 % suppression of induced production (RAW 264.7 cells [3]; dose 25 μM): 43% | no2/no3 % suppression of induced production (RAW 264.7 cells [3]; dose 500 μM): 52%

SMILES: CC(=O)c1ccc(NC(=O)NCCN(CCNC(=NNC(=N)N)Nc2ccc(C(C)=O)cc2)CCNC(=NNC(=N)N)Nc2ccc(C(C)=NNC(=N)N)cc2)cc1.Cl.Cl.Cl (hydrate or solvate)
melting point: 224 to 225 °C (dec.)

SMILES: CC(=O)c1cccc(NC(=NNC(=N)N)c2cc(C(=NNC(=N)N)Nc3cccc(C(C)=O)c3)cc(C(=NNC(=N)N)Nc3cccc(C(C)=O)c3)c2)c1.Cl.Cl.Cl (hydrate or solvate)
melting point: 270 to 275 °C (dec.)
